Assay results published in patent publication US20100227880A1, “CHEMICAL COMPOUNDS” (priority 2006, published 2010).
pIC50: −log10 of the molar value.

Test system: HIV-1 Ba-L or HIV-1 IIIB infection of the HOS cell line (expressing hCXCR4/hCCR5/hCD4/pHIV-LTR-luciferase)
Experiment: HOS HIV-1 Infectivity Assay
Format: cell-based
Conditions: Human immunodeficiency virus 1, HOS cells, luciferase readout, strain not given, read-out: Activity Level
Description: Compounds were profiled against two HIV-1 viruses, the M-tropic (CCR5 utilizing) Ba-L strain and the T-tropic (CXCR4 utilizing) IIIB strain. Ba-L was propagated in either peripheral blood lymphocytes or SupT1/CCR5+/CXCR4+ cells. IIIB was propagated in peripheral blood lymphocytes. Compounds were tested for their ability to block infection of the HOS cell line (expressing hCXCR4/hCCR5/hCD4/pHIV-LTR-luciferase) by either HIV-1 Ba-L or HIV-1 IIIB. Compound cytotoxicity was also examined in the absence of virus addition.
HOS cells (expressing hCXCR4/hCCR5/hCD4/pHIV-LTR-luciferase) were harvested and diluted in Dulbeccos modified Eagles media supplemented with 2% FCS to a concentration of 120,000 cells/ml. The cells were plated into 96-well plates (50 μl per well) and the plates were placed in a tissue culture incubator (370° C.; 5% CO2/95% air) for a period of 24 h.
Subsequently, 50 μl of the desired drug solution (2 times the final concentration) was added to each well and the plates were returned to the tissue culture incubator ([…]; 5% CO2/95% air) for 1 h. Following this incubation, 60 μl of diluted virus (4 times the final concentration) was added to 60 μl of 2× the final desired concentration of the compound and 100 μl this compound/virus mix was added to each well (approximately 2 million RLU per well of virus). The plates were returned to the tissue culture incubator ([…]; 5% CO2/95% air) and were incubated for a further 96 h.
Following this incubation the endpoint for the virally infected cultures was quantified following addition of Steady-Glo Luciferase assay system reagent (Promega, Madison, Wis.). Cell viability or non-infected cultures was measured using a CellTiter-Glo luminescent cell viability assay system (Promega, Madison, Wis.). All luminescent readouts are performed on a Topcount luminescence detector (Packard, Meridien, Conn.).

SMILES	pIC50
CN(Cc1nc2ccccn2c1-c1ccncc1)[C@H]1CCCc2cccnc21 [Example 1, (8S)-N-Methyl-N-{[3-(4-pyridinyl)imidazo[1,2-a]pyridin-2-yl]methyl}-5,6,7,8-tetrahydro-8-quinolinamine]	> 7.00
CN(Cc1nc2ccccn2c1CNCCCN)C1CCCc2cccnc21 (stereo not drawn) [Example 32, N-[(2-{-[methyl(5,6,7,8-tetrahydro-8-quinolinyl)amino]methyl}imidazo[1,2-a]pyridin-3-yl)methyl]-1,3-propanediamine]	6.30 to 7.00
CN(Cc1nc2ccccn2c1CCCN)[C@H]1CCCc2cccnc21 [Example 2, (8S)-N-{[3-(3-Aminopropyl)imidazo[1,2-a]pyridin-2-yl]methyl}-N-methyl-5,6,7,8-tetrahydro-8-quinolinamine]	> 7.00
CN1CCN(Cc2c(CN(C)C3CCCc4cccnc43)nc3ccccn23)CC1 (stereo not drawn) [Example 31, N-methyl-N-({3-[(4-methyl-1-piperazinyl)methyl]imidazo[1,2-d]pyridin-2-yl}methyl)-5,6,7,8-tetrahydro-8-quinolinamine]	6.30 to 7.00
COCCN(C)Cc1c(CN(C)[C@H]2CCCc3cccnc32)nc2ccccn12 [Example 21, (8S)-N-Methyl-N-{[3-({methyl[2-(methyloxy)ethyl]amino}methyl)imidazo[1,2-a]pyridin-2-yl]methyl}-5,6,7,8-tetrahydro-8-quinolinamine]	6.30 to 7.00
CC(C)CN(C)Cc1c(CN(C)[C@H]2CCCc3cccnc32)nc2ccccn12 [Example 26, (8S)-N-Methyl-N-[(3-{[methyl(2-methylpropyl)amino]methyl}imidazo[1,2-a]pyridin-2-yl)methyl]-5,6,7,8-tetrahydro-8-quinolinamine]	6.30 to 7.00
COCCN(CCOC)Cc1c(CN(C)[C@H]2CCCc3cccnc32)nc2ccccn12 [Example 19, (8S)-N-{[3-({Bis[2-(methyloxy)ethyl]amino}methyl)imidazo[1,2-a]pyridin-2-yl]methyl}-N-methyl-5,6,7,8-tetrahydro-8-quinolinamine]	6.30 to 7.00
CN(Cc1nc2ccccn2c1-c1cccnc1)[C@H]1CCCc2cccnc21 [Example 5, (8S)-N-Methyl-N-{[3-(3-pyridinyl)imidazo[1,2-a]pyridin-2-yl]methyl}-5,6,7,8-tetrahydro-8-quinolinamine]	6.30 to 7.00
CN1CCN(c2ccc(-c3c(CN(C)[C@H]4CCCc5cccnc54)nc4ccccn34)cn2)CC1 [Example 14, (8S)-N-Methyl-N-({3-[6-(4-methyl-1-piperazinyl)-3-pyridinyl]imidazo[1,2-a]pyridin-2-yl}methyl)-5,6,7,8-tetrahydro-8-quinolinamine]	> 7.00
CN(C)c1ccc(-c2c(CN(C)[C@H]3CCCc4cccnc43)nc3ccccn23)cn1 [Example 11, (8S)-N-({3-[6-(Dimethylamino)-3-pyridinyl]imidazo[1,2-a]pyridin-2-yl}methyl)-N-methyl-5,6,7,8-tetrahydro-8-quinolinamine]	> 7.00
CN1CCC(N(C)Cc2c(CN(C)[C@H]3CCCc4cccnc43)nc3ccccn23)C1 (stereo partly drawn) [Example 23, (8S)-N-Methyl-N-[(3-{[methyl(1-methyl-3-pyrrolidinyl)amino]methyl}imidazo[1,2-a]pyridin-2-yl)methyl]-5,6,7,8-tetrahydro-8-quinolinamine]	> 7.00
CC(C)N(C)Cc1c(CN(C)[C@H]2CCCc3cccnc32)nc2ccccn12 [Example 22, (8S)-N-Methyl-N-[(3-{[methyl(1-methylethyl)amino]methyl}imidazo[1,2-a]pyridin-2-yl)methyl]-5,6,7,8-tetrahydro-8-quinolinamine]	> 7.00
CC(C)N1CCN(C(=O)c2c(CN(C)C3CCCc4cccnc43)nc3ccccn23)CC1 (stereo not drawn) [Example 38, N-methyl-N-[(3-{[4-(1-methylethyl)-1-piperazinyl]carbonyl}imidazo[1,2-a]pyridin-2-yl)methyl]-5,6,7,8-tetrahydro-8-quinolinamine]	5.00 to 6.30
CN(Cc1nc2ccccn2c1CN1CCCCC1)[C@H]1CCCc2cccnc21 [Example 12, (8S)-N-Methyl-N-{[3-(1-piperidinylmethyl)imidazo[1,2-a]pyridin-2-yl]methyl}-5,6,7,8-tetrahydro-8-quinolinamine]	> 7.00
CN(C)C1CCN(C(=O)c2c(CN(C)C3CCCc4cccnc43)nc3ccccn23)C1 (stereo not drawn) [Example 36, N-[(3-{[3-(dimethylamino)-1-pyrrolidinyl]carbonyl}imidazo[1,2-a]pyridin-2-yl)methyl]-N-methyl-5,6,7,8-tetrahydro-8-quinolinamine]	6.30 to 7.00
CN(C)CCNCc1c(CN(C)C2CCCc3cccnc32)nc2ccccn12 (racemic) [Example 30, N,N-dimethyl-N′-[(2-{[methyl(5,6,7,8-tetrahydro-8-quinolinyl)amino]methyl}imidazo[1,2-a]pyridin-3-yl)methyl]-1,2-ethanediamine]	6.30 to 7.00
CN(C)c1cc(-c2c(CN(C)[C@H]3CCCc4cccnc43)nc3ccccn23)ccn1 [Example 28, (8S)-N-({3-[2-(Dimethylamino)-4-pyridinyl]imidazo[1,2-a]pyridin-2-yl}methyl)-N-methyl-5,6,7,8-tetrahydro-8-quinolinamine]	6.30 to 7.00
CN1CCN(C(=O)c2c(CN(C)C3CCCc4cccnc43)nc3ccccn23)CC1 (stereo not drawn) [Example 37, N-methyl-N-({3-[(4-methyl-1-piperazinyl)carbonyl]imidazo[1,2-a]pyridin-2-yl}methyl)-5,6,7,8-tetrahydro-8-quinolinamine]	5.00 to 6.30
CN(Cc1nc2ccccn2c1CN1CCCC1)[C@H]1CCCc2cccnc21 [Example 9, (8S)-N-Methyl-N-{[3-(1-pyrrolidinylmethyl)imidazo[1,2-a]pyridin-2-yl]methyl}-5,6,7,8-tetrahydro-8-quinolinamine]	> 7.00
CC(C)CNCCCc1c(CN(C)[C@H]2CCCc3cccnc32)nc2ccccn12 [Example 4, (8S)-N-Methyl-N-[(3-{3-[(2-methylpropyl)amino]propyl}imidazo[1,2-a]pyridin-2-yl)methyl]-5,6,7,8-tetrahydro-8-quinolinamine]	> 7.00
CN(Cc1nc2ccccn2c1-c1ccc(N2CCOCC2)nc1)[C@H]1CCCc2cccnc21 [Example 8, (8S)-N-Methyl-N-({3-[6-(4-morpholinyl)-3-pyridinyl]imidazo[1,2-a]pyridin-2-yl}methyl)-5,6,7,8-tetrahydro-8-quinolinamine]	6.30 to 7.00
CN(C)C1CCN(c2ccc(-c3c(CN(C)[C@H]4CCCc5cccnc54)nc4ccccn34)cn2)C1 (stereo partly drawn) [Example 18, (8S)-N-[(3-{6-[3-(Dimethylamino)-1-pyrrolidinyl]-3-pyridinyl}imidazo[1,2-a]pyridin-2-yl)methyl]-N-methyl-5,6,7,8-tetrahydro-8-quinolinamine]	5.00 to 6.30
CN(C)CCNC(=O)c1c(CN(C)C2CCCc3cccnc32)nc2ccccn12 (stereo not drawn) [Example 33, N-[2-(dimethylamino)ethyl]-2-{[methyl(5,6,7,8-tetrahydro-8-quinolinyl)amino]methyl}imidazo[1,2-a]pyridine-3-carboxamide]	5.00 to 6.30
CN(Cc1nc2ccccn2c1CN1CCOCC1)[C@H]1CCCc2cccnc21 [Example 10, (8S)-N-Methyl-N-{[3-(4-morpholinylmethyl)imidazo[1,2-a]pyridin-2-yl]methyl}-5,6,7,8-tetrahydro-8-quinolinamine]	6.30 to 7.00
